Test results reported in the supplement of paper PMC10307832.

Legend:
Experiment in all cases: relative viability (nuclei count vs DMSO), 5 days (fraction); higher = more cells survive
[1] = test system: NCI-H661
How it was run: (§1)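 Each reported value is a median over duplicate plates. It expresses relative viability: treated-well nuclei count divided by vehicle-well nuclei count. Lung cancer cell lines in 1536-well plates were dosed by pin tool a day after seeding, alone with one drug or with a fixed anchor-drug dose plus five library-drug doses (not always all listed) in √10 steps, and nuclei were counted after 5 days.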

[2] = test system: NCI-H727
How it was run: as §1

[3] = test system: NCI-H441
How it was run: as §1

[4] = test system: COR-L23
How it was run: as §1

[5] = test system: EKVX
How it was run: as §1

[6] = test system: CAL-12T
How it was run: as §1

[7] = test system: BEN
How it was run: as §1

[8] = test system: NCI-H2009
How it was run: as §1

[9] = test system: NCI-H2170
How it was run: as §1

[10] = test system: NCI-H1666
How it was run: as §1

[11] = test system: ABC-1
How it was run: as §1

[12] = test system: NCI-H1437
How it was run: as §1

[13] = test system: LU99A
How it was run: as §1

[14] = test system: 201T
How it was run: as §1

[15] = test system: LK-2
How it was run: as §1

[16] = test system: SW 900
How it was run: as §1

[17] = test system: COR-L 105
How it was run: as §1

[18] = test system: NCI-H1650
How it was run: as §1

[19] = test system: HCC-366
How it was run: as §1

[20] = test system: HARA
How it was run: as §1

[21] = test system: NCI-H838
How it was run: as §1

[22] = test system: PC-14
How it was run: as §1

[23] = test system: NCI-H3122
How it was run: as §1

How did the relative viability ([1]; first compound 0.01 µM) turn out when `NC(=O)Nc1cc(-c2cccc(F)c2)sc1C(=O)N[C@H]1CCCNC1` [AZD7762] + CC(=O)c1c(C)c2cnc(Nc3ccc(N4CCNCC4)cn3)nc2n(C2CCCC2)c1=O [Palbociclib] (partner 0.5 µM) was run?
Its relative viability is 0.447.

And the relative viability ([1]; first compound 0.03162 µM)?
The relative viability was 0.456.

What about the relative viability ([1]; first compound 0.1 µM) of the same compound?
The relative viability was 0.497.

And the relative viability ([1]; first compound 0.3162 µM)?
The relative viability was 0.461.

And the relative viability ([1]; first compound 1 µM)?
The relative viability was 0.344.

What about the relative viability ([2]; first compound 0.01 µM) of the same compound?
The relative viability was 0.693.

And the relative viability ([2]; first compound 0.03162 µM)?
Its relative viability is 0.669.

And the relative viability ([2]; first compound 0.1 µM)?
The relative viability was 0.669.

And the relative viability ([2]; first compound 0.3162 µM)?
The relative viability was 0.642.

What about the relative viability ([2]; first compound 1 µM) of the same compound?
The relative viability was 0.559.

What about the relative viability ([3]; first compound 0.01 µM) of the same compound?
The relative viability was 0.242.

And the relative viability ([3]; first compound 0.03162 µM)?
Its relative viability is 0.26.

What about the relative viability ([3]; first compound 0.1 µM) of the same compound?
Its relative viability is 0.232.

And the relative viability ([3]; first compound 0.3162 µM)?
The relative viability was 0.251.

What about the relative viability ([3]; first compound 1 µM) of the same compound?
Its relative viability is 0.256.

What about the relative viability ([4]; first compound 0.01 µM) of the same compound?
Its relative viability is 0.307.

And the relative viability ([4]; first compound 0.03162 µM)?
Its relative viability is 0.332.

What about the relative viability ([4]; first compound 0.1 µM) of the same compound?
Its relative viability is 0.412.

And the relative viability ([4]; first compound 0.3162 µM)?
The relative viability was 0.261.

What about the relative viability ([4]; first compound 1 µM) of the same compound?
Its relative viability is 0.117.

And the relative viability ([5]; first compound 0.01 µM)?
Its relative viability is 0.414.

And the relative viability ([5]; first compound 0.03162 µM)?
Its relative viability is 0.415.

And the relative viability ([5]; first compound 0.1 µM)?
The relative viability was 0.372.

What about the relative viability ([5]; first compound 0.3162 µM) of the same compound?
The relative viability was 0.445.

What about the relative viability ([5]; first compound 1 µM) of the same compound?
Its relative viability is 0.299.

What about the relative viability ([6]; first compound 0.01 µM) of the same compound?
The relative viability was 0.519.

And the relative viability ([6]; first compound 0.03162 µM)?
The relative viability was 0.502.

And the relative viability ([6]; first compound 0.1 µM)?
The relative viability was 0.412.

What about the relative viability ([6]; first compound 0.3162 µM) of the same compound?
The relative viability was 0.194.

And the relative viability ([6]; first compound 1 µM)?
The relative viability was 0.129.

What about the relative viability ([7]; first compound 0.01 µM) of the same compound?
Its relative viability is 0.476.

And the relative viability ([7]; first compound 0.03162 µM)?
The relative viability was 0.483.

What about the relative viability ([7]; first compound 0.1 µM) of the same compound?
The relative viability was 0.436.

And the relative viability ([7]; first compound 0.3162 µM)?
Its relative viability is 0.422.

And the relative viability ([7]; first compound 1 µM)?
Its relative viability is 0.366.

What about the relative viability ([8]; first compound 0.01 µM) of the same compound?
Its relative viability is 0.155.

And the relative viability ([8]; first compound 0.03162 µM)?
Its relative viability is 0.214.

And the relative viability ([8]; first compound 0.1 µM)?
The relative viability was 0.221.

What about the relative viability ([8]; first compound 0.3162 µM) of the same compound?
The relative viability was 0.175.

What about the relative viability ([8]; first compound 1 µM) of the same compound?
The relative viability was 0.13.

What about the relative viability ([9]; first compound 0.01 µM) of the same compound?
The relative viability was 0.437.

And the relative viability ([9]; first compound 0.03162 µM)?
The relative viability was 0.397.

What about the relative viability ([9]; first compound 0.1 µM) of the same compound?
The relative viability was 0.425.

What about the relative viability ([9]; first compound 0.3162 µM) of the same compound?
Its relative viability is 0.424.

And the relative viability ([9]; first compound 1 µM)?
Its relative viability is 0.415.

And the relative viability ([10]; first compound 0.01 µM)?
The relative viability was 0.609.

And the relative viability ([10]; first compound 0.03162 µM)?
Its relative viability is 0.728.

And the relative viability ([10]; first compound 0.1 µM)?
Its relative viability is 0.701.

And the relative viability ([10]; first compound 0.3162 µM)?
The relative viability was 0.565.

And the relative viability ([10]; first compound 1 µM)?
Its relative viability is 0.65.

What about the relative viability ([11]; first compound 0.01 µM) of the same compound?
The relative viability was 0.884.

And the relative viability ([11]; first compound 0.03162 µM)?
The relative viability was 0.968.

And the relative viability ([11]; first compound 0.1 µM)?
The relative viability was 0.526.

What about the relative viability ([11]; first compound 0.3162 µM) of the same compound?
The relative viability was 0.948.

What about the relative viability ([11]; first compound 1 µM) of the same compound?
The relative viability was 0.74.

What about the relative viability ([12]; first compound 0.01 µM) of the same compound?
The relative viability was 0.357.

And the relative viability ([12]; first compound 0.03162 µM)?
The relative viability was 0.293.

And the relative viability ([12]; first compound 0.1 µM)?
The relative viability was 0.379.

And the relative viability ([12]; first compound 0.3162 µM)?
Its relative viability is 0.41.

What about the relative viability ([12]; first compound 1 µM) of the same compound?
Its relative viability is 0.35.

What about the relative viability ([13]; first compound 0.01 µM) of the same compound?
Its relative viability is 0.469.

What about the relative viability ([13]; first compound 0.03162 µM) of the same compound?
Its relative viability is 0.427.

What about the relative viability ([13]; first compound 0.1 µM) of the same compound?
The relative viability was 0.438.

And the relative viability ([13]; first compound 0.3162 µM)?
The relative viability was 0.408.

What about the relative viability ([13]; first compound 1 µM) of the same compound?
Its relative viability is 0.354.

What about the relative viability ([14]; first compound 0.01 µM) of the same compound?
Its relative viability is 0.361.

And the relative viability ([14]; first compound 0.03162 µM)?
Its relative viability is 0.348.

And the relative viability ([14]; first compound 0.1 µM)?
The relative viability was 0.361.

And the relative viability ([14]; first compound 0.3162 µM)?
Its relative viability is 0.386.

And the relative viability ([14]; first compound 1 µM)?
Its relative viability is 0.402.

What about the relative viability ([15]; first compound 0.01 µM) of the same compound?
Its relative viability is 0.6.

What about the relative viability ([15]; first compound 0.03162 µM) of the same compound?
The relative viability was 0.779.

And the relative viability ([15]; first compound 0.1 µM)?
Its relative viability is 0.742.

And the relative viability ([15]; first compound 0.3162 µM)?
Its relative viability is 0.612.

And the relative viability ([15]; first compound 1 µM)?
The relative viability was 0.572.

What about the relative viability ([16]; first compound 0.01 µM) of the same compound?
The relative viability was 0.597.

What about the relative viability ([16]; first compound 0.03162 µM) of the same compound?
The relative viability was 0.688.

And the relative viability ([16]; first compound 0.1 µM)?
The relative viability was 0.583.

What about the relative viability ([16]; first compound 0.3162 µM) of the same compound?
The relative viability was 0.444.

And the relative viability ([16]; first compound 1 µM)?
The relative viability was 0.504.

What about the relative viability ([17]; first compound 0.01 µM) of the same compound?
The relative viability was 0.414.

What about the relative viability ([17]; first compound 0.03162 µM) of the same compound?
Its relative viability is 0.415.

What about the relative viability ([17]; first compound 0.1 µM) of the same compound?
The relative viability was 0.367.

And the relative viability ([17]; first compound 0.3162 µM)?
Its relative viability is 0.386.

And the relative viability ([17]; first compound 1 µM)?
Its relative viability is 0.372.

And the relative viability ([18]; first compound 0.01 µM)?
Its relative viability is 0.367.

What about the relative viability ([18]; first compound 0.03162 µM) of the same compound?
The relative viability was 0.397.

What about the relative viability ([18]; first compound 0.1 µM) of the same compound?
Its relative viability is 0.344.

What about the relative viability ([18]; first compound 0.3162 µM) of the same compound?
Its relative viability is 0.314.

And the relative viability ([18]; first compound 1 µM)?
The relative viability was 0.176.

What about the relative viability ([19]; first compound 0.01 µM) of the same compound?
Its relative viability is 0.478.

What about the relative viability ([19]; first compound 0.03162 µM) of the same compound?
The relative viability was 0.387.

And the relative viability ([19]; first compound 0.1 µM)?
The relative viability was 0.407.

And the relative viability ([19]; first compound 0.3162 µM)?
Its relative viability is 0.28.

What about the relative viability ([19]; first compound 1 µM) of the same compound?
The relative viability was 0.106.

And the relative viability ([20]; first compound 0.01 µM)?
Its relative viability is 0.308.

What about the relative viability ([20]; first compound 0.03162 µM) of the same compound?
Its relative viability is 0.245.

What about the relative viability ([20]; first compound 0.1 µM) of the same compound?
Its relative viability is 0.254.

And the relative viability ([20]; first compound 0.3162 µM)?
The relative viability was 0.31.

What about the relative viability ([20]; first compound 1 µM) of the same compound?
The relative viability was 0.265.

And the relative viability ([21]; first compound 0.01 µM)?
The relative viability was 0.27.

And the relative viability ([21]; first compound 0.03162 µM)?
Its relative viability is 0.198.

And the relative viability ([21]; first compound 0.1 µM)?
The relative viability was 0.243.

And the relative viability ([21]; first compound 0.3162 µM)?
The relative viability was 0.221.

And the relative viability ([21]; first compound 1 µM)?
Its relative viability is 0.221.

And the relative viability ([22]; first compound 0.01 µM)?
The relative viability was 0.601.

What about the relative viability ([22]; first compound 0.03162 µM) of the same compound?
Its relative viability is 0.469.

What about the relative viability ([22]; first compound 0.1 µM) of the same compound?
The relative viability was 0.326.

And the relative viability ([22]; first compound 0.3162 µM)?
The relative viability was 0.203.

And the relative viability ([22]; first compound 1 µM)?
Its relative viability is 0.0753.

What about the relative viability ([23]; first compound 0.01 µM) of the same compound?
The relative viability was 0.167.

And the relative viability ([23]; first compound 0.03162 µM)?
Its relative viability is 0.206.

And the relative viability ([23]; first compound 0.1 µM)?
The relative viability was 0.191.

What about the relative viability ([23]; first compound 0.3162 µM) of the same compound?
Its relative viability is 0.199.

And the relative viability ([23]; first compound 1 µM)?
Its relative viability is 0.191.
